Assay results reported in patent US20140005163A1 (NOVARTIS AG, priority 2010, published 2014).

Assays:
mTOR = molecular target: T1, mTOR (Homo sapiens, UniProt P42345); test: Biochemical assay for m-TOR by TR-FRET; conditions: 8 μM ATP, 400 nM GFP-4EBP1, 0.5 nM mTOR
T1 construct: purchased Invitrogen Corporation (Carlsbad/CA, USA) PV4753
Procedure: Biochemical Assay for m-TOR by TR-FRET.
Assay components are purchased from Invitrogen Corporation (Carlsbad/CA, USA): GFP-4EBP1 (Cat. No. PV4759), Tb3+-α-p4EBP1 [pThr46] Antibody (Cat. No. PV4757), proprietary TR-FRET dilution buffer (Cat. No. PV3574), mTOR protein (Cat. No. PV4753).
Then 5 μL of ATP (8 μM final concentration) and GFP-4EBP1 (400 nM final concentration) with 5 μL mTOR proteins (0.5 nM final concentration) are incubated at rt. The standard reaction buffer for the TR-FRET mTOR assay contained 50 mM HEPES pH 7.5, 10 mM MnCl2, 50 mM NaCl, 1 mM EGTA, 1 mM DTT. Reactions were stopped with 10 μL of a mixture of EDTA containing the Tb3+-α-p4EBP1-[pT46] detection Ab (0.5 nM) in TR-FRET dilution buffer (proprietary to IVG). Plates are read 15 mins later in a Synergy2 reader using an integration time of 0.2 seconds and a delay of 0.1 seconds. […] A standard compound is used as a reference compound and included in all assay plates in the form of 16 dilution points in duplicate.

[1] = system: PKB Ser473 phosphorylation in Rat1-myr-HA-p110 alpha cells; test: Reverse protein array assay, PKB Ser473 phosphorylation in Rat1-myr-p110 alpha cells; format: cell-based; conditions: 0.5 h, pAkt Ser473, 30 minutes compound incubation, read-out: p-PKB IC50
Procedure: (§1) The Rat1-myr-HA-p110 alpha, beta and delta cells were trypsinized and counted with a CASY TT cell counter (Schärfe System GmbH, Reutlingen Germany). […] The plates were incubated at 37° C. and 5% CO2 under humidified condition for at least 20 h. Compound of formula I working solutions were prepared freshly as serial 8 step dilutions (vol/vol) in DMSO on the day of the experiment. […] The final DMSO concentration was kept constant at 0.2%. cell culture medium containing 0.2% DMSO was used as vehicle treatment control. Post incubation, the cells were treated with the serial compound dilution. 50 μl of the compound medium mixture was added to the wells containing cells and 150 μl DMEM medium and incubated for 30 minutes (37° C., 5% CO2). After 30 minutes of incubation, the medium mixture was quickly removed by aspiration. […] 50 μl of the described lysis buffer mix was added to each well, followed by 10 minutes of incubation on ice.
(§2) The samples were spotted onto ZeptoMARKt PWG protein microarray chips (Zeptosens, Witterswil, Switzerland) with the piezoelectric microdispense-based, non-contact Nano-Plotter 2.1 (GeSiM, Grosserkmannsdorf, Germany). Each sample was spotted at 4 different sample concentrations (d1=100%, d2=75%, d3=50%, d4=25%) by diluting the cell lysate with the corresponding volume of lysis buffer mix. After spotting the ZeptoMARK® protein microarrays, the chips are incubated for 1 hour at 37° C. […] After 20 minutes of blocking the chips are extensively rinsed with deionized water (Milli-Q quality, 18MΩ×cm) and dried in a nitrogen air flow.
(§3) After incubation, the arrays were washed twice with 200 μl CAB1 buffer. […] The fluorescence signal was assessed with exposure times of 1, 3, 5 and 10 seconds, depending on the intensity of the signal. The resulting four images taken per array are stored as 16-bit TIF files.
(§4) The fluorescence images for each array were analyzed with the ZeptoVIEW Pro 2.0 software (Zeptosens, Witterswil, Switzerland) and the relative fluorescence intensity for each signal was calculated.

[2] = system: PKB Ser473 phosphorylation in Rat1-myr-HA-p110 beta cells; test: Reverse protein array assay, PKB Ser473 phosphorylation in Rat1-myr-p110 beta cells; format: cell-based; conditions: 0.5 h, pAkt Ser473, 30 minutes incubation, read-out: p-PKB IC50
Procedure: as §1, §2, §3, §4

[3] = system: PKB Ser473 phosphorylation in Rat1-myr-HA-p110 delta cells; test: Reverse protein array assay, PKB Ser473 phosphorylation in Rat1-myr-p110 delta cells; format: cell-based; conditions: read-out: p-PKB IC50
Procedure: as §1, §2, §3, §4

[4] = system: S6 Ribosomal Protein phosphorylation Ser235/236 in TSC1 null mouse embryo fibroblast (MEF) cells; test: Reverse protein array assay, S6 Ribosomal Protein phosphorylation Ser235/236 in TSC1 null MEF cells; format: cell-based; conditions: 1 h, pS6 ribosomal protein Ser235/236, 60 minutes incubation, read-out: p-S6 IC50
Procedure: as §1, with “TSC1−/−” for “Rat1-myr-HA-p110 alpha, beta and delta”, “(Schirfe” for “(Schärfe”, “Working” for “Compound of formula I working”, “0.02%.” for “0.2%.”, “0.02%” for “0.2%”, “60” for “30”
The spotting of the chips follows the previous described method.

PI3K alpha = molecular target: T2, PI3K alpha (Homo sapiens, UniProt P42336); test: PI3K alpha kinase assay (Kinase-Glo luminescence); format: biochemical
T2 construct: p85(iSH2) fusion partner (see partner chain) (N); His tag (C); made in house; host or cells: baculovirus; Tn5 (Trichoplusia ni) or TiniPro insect cells
Procedure: In a more preferred assay, the kinase reaction is performed in a final volume of 10 μL per well of a low volume non binding CORNING, 384 well black plate (Cat. No. #3676). The final concentrations of ATP and phosphatidyl inositol (PI) in the assay are 1 μM and 10 μg/mL respectively. The reaction is started by the addition of ATP.
The components of the assay are added per well as follows:
[…] in 90% DMSO per well, in columns 1-20, 8 concentrations (1/3 and 1/3.33 serial dilution step) in single. • Low control: […] of 90% DMSO in half the wells of columns 23-24 (0.45% in final). • High control: […] of reference compound (e.g. compound of Example 7 in WO 2006/122806) in the other half of columns 23-24 (2.5 μM in final). • Standard: […] of reference compound as just mentioned diluted as the test compounds in columns 21-22 • 20 mL ‘buffer’ are prepared per assay: • 200 μL of 1M TRIS HCl pH7.5 (10 mM in final) • 60 μL of 1M MgCl2 (3 mM in final) • 500 μL of 2M NaCl (50 mM in final) • 100 μL of 10% CHAPS (0.05% in final) • 200 μL of 100 mM DTT (1 mM in final) • 18.94 mL of nanopure water • 10 mL ‘PI’ are prepared per assay: • 200 μL of 1 mg/ml L-alpha-Phosphatidylinositol (Liver Bovine, Avanti Polar Lipids Cat. No. 840042C MW=909.12) prepared in 3% OctylGlucoside (10 μg/ml in final) • 9.8 mL of ‘buffer’ • 10 mL ‘ATP’ are prepared per assay: • 6.7 μL of 3 mM stock of ATP giving a final concentration of 1 μM per well • 10 mL of ‘buffer’ • 2.5 mL of each PI3K construct are prepared per assay in ‘PI’ with the following final concentration: • 10 nM PI3K alfa EMV B1075 • 25 nM beta EMV BV949 • 10 nM delta EMV BV1060 • 150 nM gamma EMV BV950 • 5 μL of ‘PI/PI3K’ are added per well. • 5 μl ‘ATP’ are added per well to start the reaction. • The plates are then incubated at room temperature for 60 minutes (alfa, beta, delta) or 120 minutes (gamma). • The reaction is terminated by the addition of 10 μL Kinase-Glo (Promega Cat. No. #6714). • The assay plates are read after 10 minutes in Synergy 2 reader (BioTek, Vermont USA) with an integration time of 100 milliseconds and sensitivity set to 191. • Output: The High control is around 60'000 counts and the Low control is 30'000 or lower • This luminescence assay gives a useful Z′ ratio between 0.4 and 0.7
Two different constructs, BV 1052 and BV 1075, are used to generate the PI3 Kinase a proteins for compound screening.
IC50 is determined by a four parameter curve fitting routine that comes along with “excel fit”. […] Alternatively, IC50 values are calculated using idbsXLfit model 204, which is a 4 parameter logistic model.

T1 sequence (P42345 1360-2549 limits assumed): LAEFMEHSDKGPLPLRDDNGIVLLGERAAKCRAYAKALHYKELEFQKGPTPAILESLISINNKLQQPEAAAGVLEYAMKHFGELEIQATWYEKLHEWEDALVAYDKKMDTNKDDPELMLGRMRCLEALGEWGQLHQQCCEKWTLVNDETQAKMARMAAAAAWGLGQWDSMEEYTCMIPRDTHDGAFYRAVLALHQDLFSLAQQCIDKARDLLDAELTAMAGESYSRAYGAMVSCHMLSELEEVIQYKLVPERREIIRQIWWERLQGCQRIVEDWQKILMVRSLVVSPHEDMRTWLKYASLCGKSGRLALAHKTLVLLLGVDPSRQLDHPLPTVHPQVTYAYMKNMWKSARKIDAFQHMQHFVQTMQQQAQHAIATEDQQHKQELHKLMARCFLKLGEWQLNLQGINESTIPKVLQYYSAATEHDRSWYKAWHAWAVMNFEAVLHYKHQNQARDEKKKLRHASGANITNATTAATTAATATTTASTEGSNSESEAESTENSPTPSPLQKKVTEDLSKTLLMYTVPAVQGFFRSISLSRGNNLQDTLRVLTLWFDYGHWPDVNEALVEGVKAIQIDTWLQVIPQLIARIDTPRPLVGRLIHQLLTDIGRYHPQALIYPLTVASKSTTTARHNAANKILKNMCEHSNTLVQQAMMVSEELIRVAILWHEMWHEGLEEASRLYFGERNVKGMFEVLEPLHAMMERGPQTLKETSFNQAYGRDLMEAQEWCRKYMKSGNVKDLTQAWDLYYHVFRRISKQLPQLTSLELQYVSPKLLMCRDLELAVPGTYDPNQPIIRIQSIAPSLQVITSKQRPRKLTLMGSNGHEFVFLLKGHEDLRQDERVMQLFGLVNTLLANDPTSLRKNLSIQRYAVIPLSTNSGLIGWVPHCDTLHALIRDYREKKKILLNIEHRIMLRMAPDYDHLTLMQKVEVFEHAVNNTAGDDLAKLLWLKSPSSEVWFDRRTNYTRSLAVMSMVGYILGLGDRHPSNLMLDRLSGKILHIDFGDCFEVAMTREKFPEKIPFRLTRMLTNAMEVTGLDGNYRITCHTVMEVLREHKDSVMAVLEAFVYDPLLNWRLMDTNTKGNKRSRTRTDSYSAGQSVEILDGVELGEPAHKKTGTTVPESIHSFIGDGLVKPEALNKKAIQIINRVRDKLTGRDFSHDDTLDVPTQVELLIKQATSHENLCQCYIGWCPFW
T2 sequence (P42336 with tags, fused parts or gaps limits assumed): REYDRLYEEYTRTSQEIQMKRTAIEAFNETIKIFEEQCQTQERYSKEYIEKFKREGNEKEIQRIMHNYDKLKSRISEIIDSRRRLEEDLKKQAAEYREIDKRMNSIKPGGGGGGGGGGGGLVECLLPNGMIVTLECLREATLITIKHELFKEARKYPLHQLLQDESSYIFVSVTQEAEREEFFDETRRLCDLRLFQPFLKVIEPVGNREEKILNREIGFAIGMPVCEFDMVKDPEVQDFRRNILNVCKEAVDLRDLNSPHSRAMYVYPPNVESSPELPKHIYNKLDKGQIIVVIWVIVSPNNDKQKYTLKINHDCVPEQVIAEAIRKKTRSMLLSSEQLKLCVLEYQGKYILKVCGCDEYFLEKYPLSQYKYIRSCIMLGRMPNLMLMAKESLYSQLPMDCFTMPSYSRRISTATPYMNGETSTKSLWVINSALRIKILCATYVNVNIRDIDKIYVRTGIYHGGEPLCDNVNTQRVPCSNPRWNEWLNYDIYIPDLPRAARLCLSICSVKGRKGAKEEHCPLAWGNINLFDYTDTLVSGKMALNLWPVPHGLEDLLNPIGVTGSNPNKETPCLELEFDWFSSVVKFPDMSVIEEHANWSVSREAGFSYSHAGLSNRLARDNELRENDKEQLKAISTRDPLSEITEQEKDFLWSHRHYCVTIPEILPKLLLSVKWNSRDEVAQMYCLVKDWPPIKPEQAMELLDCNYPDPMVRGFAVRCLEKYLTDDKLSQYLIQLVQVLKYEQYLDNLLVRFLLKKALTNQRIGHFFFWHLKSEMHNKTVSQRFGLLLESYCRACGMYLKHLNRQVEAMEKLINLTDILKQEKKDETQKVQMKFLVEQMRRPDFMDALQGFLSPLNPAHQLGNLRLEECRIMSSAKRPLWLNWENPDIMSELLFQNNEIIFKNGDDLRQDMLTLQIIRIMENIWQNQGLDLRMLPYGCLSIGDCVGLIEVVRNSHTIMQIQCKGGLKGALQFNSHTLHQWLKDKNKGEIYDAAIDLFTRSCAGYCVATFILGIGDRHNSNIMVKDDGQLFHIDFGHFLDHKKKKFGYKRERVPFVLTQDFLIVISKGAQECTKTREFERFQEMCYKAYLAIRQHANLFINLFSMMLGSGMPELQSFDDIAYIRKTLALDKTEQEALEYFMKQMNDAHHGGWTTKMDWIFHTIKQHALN

Compound	IC50 (mTOR) [nM]	IC50 [1] [nM]	IC50 [2] [nM]	IC50 [3] [nM]	IC50 [4] [nM]	IC50 (PI3K alpha) [nM]
CCn1cc(-n2c(=O)n(C)c3cnc4ccc(-c5ccc(-n6cccn6)cc5)cc4c32)c(C)n1 [Example 51.3, 1-(1-Ethyl-3-methyl-1H-pyrazol-4-yl)-3-methyl-8-(4-pyrazol-1-yl-phenyl)-1,3-dihydro-imidazo[4,5-c]quinolin-2-one]	6	8	9	15	2	–
CCN(C)C(=O)Cn1cc(-n2c(=O)n(C)c3cnc4ccc(-c5ccc(-n6cccn6)cc5)cc4c32)c(C)n1 [Example 51.6, N-Ethyl-N-methyl-2-{3-methyl-4-[3-methyl-2-oxo-8-(4-pyrazol-1-yl-phenyl)-2,3-dihydro-imidazo[4,5-c]quinolin-1-yl]pyrazol-1-yl}-acetamide]	27	12	12	15	< 0.5	61
CNc1ncc(-c2ccc3ncc4c(c3c2)n(-c2cn(C)nc2C)c(=O)n4C)cn1 [Example 80.1, 1-(1,3-Dimethyl-1H-pyrazol-4-yl)-3-methyl-8-(2-methylamino-pyrimidin-5-yl)-1,3-dihydro-imidazo[4,5-c]quinolin-2-one]	13	13	13	5	3	–
CCNc1cc(-c2ccc3ncc4c(c3c2)n(-c2c(C)noc2C)c(=O)n4C)cnc1Cl [Example 153.3, 8-(6-Chloro-5-ethylamino-pyridin-3-yl)-1-(3,5-dimethyl-isoxazol-4-yl)-3-methyl-1,3-dihydro-imidazo[4,5-c]quinolin-2-one]	665	34	55	112	36	–
COCc1ncc(-c2ccc3ncc4c(c3c2)n(-c2cn(C)nc2Cl)c(=O)n4C)cc1OC [Example 195.4, 1-(3-Chloro-1-methyl-1H-pyrazol-4-yl)-8-(5-methoxy-6-methoxymethyl-pyridin-3-yl)-3-methyl-1,3-dihydro-imidazo[4,5-c]quinolin-2-one]	8	20	23	21	2	–
CCC(O)(CC)c1cncc(-c2ccc3ncc4c(c3c2)n(-c2cn(C)nc2C)c(=O)n4C)c1 [Example 216, 1-(1,3-Dimethyl-1H-pyrazol-4-yl)-8-[5-(1-ethyl-1-hydroxy-propyl)-pyridin-3-yl]-3-methyl-1,3-dihydro-imidazo[4,5-c]quinolin-2-one]	4	10	57	56	< 0.5	–
Cc1nn(CC(=O)N2CCOCC2)cc1-n1c(=O)n(C)c2cnc3ccc(-c4cnc(N5CCCC5)nc4)cc3c21 [Example 247.3, 3-Methyl-1-[3-methyl-1-(2-morpholin-4-yl-2-oxo-ethyl)-1H-pyrazol-4-yl]-8-(2-pyrrolidin-1-yl-pyrimidin-5-yl)-1,3-dihydro-imidazo[4,5-c]quinolin-2-one]	28	175	240	636	35	163
Cc1nn(CC(=O)N2CCCC2)cc1-n1c(=O)n(C)c2cnc3ccc(-c4cnc(N5CCCC5)nc4)cc3c21 [Example 247.4, 3-Methyl-1-[3-methyl-1-(2-oxo-2-pyrrolidin-1-yl-ethyl)-1H-pyrazol-4-yl)-8-(2-pyrrolidin-1-yl-pyrimidin-5-yl)-1,3-dihydro-imidazo[4,5-c]quinolin-2-one]	34	44	41	106	4	–
